Measured values taken from patent publication US10934298B2, “Substituted pyrazolo[1,5-a]pyrimidines for the treatment of medical disorders” (BIAL—BioTech Investments, Inc., priority 2016, dated 2021).
≈ marks a conversion by molar mass, not a printed value. Where two headings read alike, the source gives them in different places.

Columns and labels:
[1] = Compound solubility in water; assay type: physicochemical
[2] = target: T1, glucocerebrosidase (Gcase) (Homo sapiens, UniProt P04062); assay: Glucocerebrosidase (Gcase) activation assay with 4-methylumbelliferyl-beta-D-glucopyranoside substrate, saposin C and phosphatidylserine/triton micelles, fluorescence readout; assay type: biochemical; settings: for Percent Gease Activation, 0.1 μM Test Compound / Percent Gease Activation, 1 μM Test Compound: Table 4
T1 construct: micellar solution containing 10 nM GCase and 100 nM saposin C
T1 sequence (P04062 40-536): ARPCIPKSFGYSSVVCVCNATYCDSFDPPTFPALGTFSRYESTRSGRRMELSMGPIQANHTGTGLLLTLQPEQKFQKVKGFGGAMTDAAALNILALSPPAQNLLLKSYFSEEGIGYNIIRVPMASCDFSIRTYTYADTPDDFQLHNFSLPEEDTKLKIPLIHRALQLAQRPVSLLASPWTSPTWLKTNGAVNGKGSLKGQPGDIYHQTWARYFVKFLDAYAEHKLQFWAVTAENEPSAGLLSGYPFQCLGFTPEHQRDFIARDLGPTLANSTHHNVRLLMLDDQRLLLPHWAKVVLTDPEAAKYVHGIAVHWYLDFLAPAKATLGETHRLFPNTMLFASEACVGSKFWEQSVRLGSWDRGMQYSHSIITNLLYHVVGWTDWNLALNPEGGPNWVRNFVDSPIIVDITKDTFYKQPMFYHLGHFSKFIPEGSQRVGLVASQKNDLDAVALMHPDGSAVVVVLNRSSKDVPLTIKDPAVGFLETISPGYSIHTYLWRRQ
Method in brief: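 Fluorescence (ex 365 nm, em 440 nm) read after glycine pH 12.5 stop of a 15 min room-temperature reaction. GCase 10 nM plus saposin C 100 nM in PS/triton micelles, pH 4.7, preincubated 30 min with compound; substrate solution held 2 mM 4-MU-beta-glucoside. Screened at 1.0 and 0.1 μM; 8-point, 3-fold curves from 5 μM top.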

| Structure (SMILES) | Percent Gcase Activation, 0.1 μM Test Compound ([2]; 0.1 μM test compound) | Percent Gcase Activation, 1 μM Test Compound ([2]; 1 μM test compound) | other results |
| --- | --- | --- | --- |
| Cc1cc(-c2ccccn2)nc2c(C(=O)N[C@@H](C)C3CC3)cnn12 [III-24] |  |  | solubility ([1]; Table 3A): 8.1 µg/mL (≈ 25.2 µM); Percent Gcase Activation, 0.1 μM Test Compound ([2]; 0.1 μM test compound, Table 3A): ** (Gcase activation in the range of 10% up to 20%); Percent Gcase Activation, 1 μM Test Compound ([2]; 1 μM test compound, Table 3A): +++ (Gcase activation greater than 60%) |
| Cc1cc(-c2cccnc2)nc2c(C(=O)N[C@@H](C)C3CC3)cnn12 [III-26] |  |  | solubility ([1]; Table 3A): 26 µg/mL (≈ 80.9 µM); Percent Gcase Activation, 0.1 μM Test Compound ([2]; 0.1 μM test compound, Table 3A): * (less than 10% Gcase activation); Percent Gcase Activation, 1 μM Test Compound ([2]; 1 μM test compound, Table 3A): ++ (Gcase activation in the range of 30% up to 60%) |
| COc1cccc(-c2cc(C)n3ncc(C(=O)NC(C4CC4)C(F)(F)F)c3n2)n1 (stereo not shown) [III-105] |  |  | solubility [1]: 0.08 µg/mL (≈ 0.197 µM); Percent Gcase Activation, 0.1 μM Test Compound ([2]; test compound at 0.1 μM): *** (greater than 20% Gcase activation); Percent Gcase Activation, 1 μM Test Compound ([2]; test compound at 1.0 μM): +++ (Gcase activation greater than 60%) |
| Cc1cc(-c2ccc(Cl)nc2)nc2c(C(=O)N[C@@H](C3CC3)C(F)(F)F)cnn12 [III-118] |  |  | solubility [1]: 0.4 µg/mL (≈ 0.976 µM); Percent Gcase Activation, 0.1 μM Test Compound ([2]; test compound at 0.1 μM): *** (greater than 20% Gcase activation); Percent Gcase Activation, 1 μM Test Compound ([2]; test compound at 1.0 μM): +++ (Gcase activation greater than 60%) |
| Cc1cc(-c2cccc(F)n2)nc2c(C(=O)NC(C3CC3)C(F)(F)F)cnn12 (stereo not shown) [III-130] |  |  | solubility [1]: 0.2 µg/mL (≈ 0.508 µM); Percent Gcase Activation, 0.1 μM Test Compound ([2]; test compound at 0.1 μM): *** (greater than 20% Gcase activation); Percent Gcase Activation, 1 μM Test Compound ([2]; test compound at 1.0 μM): +++ (Gcase activation greater than 60%) |
| Cc1cc(-c2ccc3ocnc3c2)nc2c(C(=O)NC(C3CC3)C(F)(F)F)cnn12 (stereo not shown) [III-171] |  |  | Compound Solubility in Water [1]: 0.4 µg/mL; Percent Gcase Activation, 0.1 μM Test Compound ([2]; test compound at 0.1 μM): *** (greater than 20% Gcase activation); Percent Gcase Activation, 1 μM Test Compound ([2]; test compound at 1.0 μM): +++ (Gcase activation greater than 60%) |
| Cc1cc(-c2nnc(C(C)C)o2)nc2c(C(=O)N[C@@H](C3CC3)C(F)(F)F)cnn12 [III-392] | ** (Gcase activation in the range of 10% up to 20%) | +++ (Gcase activation greater than 60%) |  |
| Cc1cc(-c2noc(C(C)C)n2)nc2c(C(=O)N[C@H](C3CC3)C(F)(F)F)cnn12 [III-393] | *** (greater than 20% Gcase activation) | +++ (Gcase activation greater than 60%) |  |
| Cc1cc(-c2noc(C(C)C)n2)nc2c(C(=O)N[C@@H](C3CC3)C(F)(F)F)cnn12 [III-394] | *** (greater than 20% Gcase activation) | +++ (Gcase activation greater than 60%) |  |
| Cc1cc(C#N)nc2c(C(=O)N[C@@H](C3CC3)C(F)(F)F)cnn12 [III-395] | * (less than 10% Gcase activation) | ++ (Gcase activation in the range of 30% up to 60%) |  |
| Cc1cc(-c2cc(F)ccc2C#N)nc2c(C(=O)N[C@@H](C)C3CC3)cnn12 [III-396] | *** (greater than 20% Gcase activation) | +++ (Gcase activation greater than 60%) |  |
| Cc1cc(-c2c(F)cccc2C#N)nc2c(C(=O)N[C@@H](C)C3CC3)cnn12 [III-397] | ** (Gcase activation in the range of 10% up to 20%) | +++ (Gcase activation greater than 60%) |  |
| Cc1cc(-c2cccc(F)c2C#N)nc2c(C(=O)N[C@@H](C)C3CC3)cnn12 [III-398] | *** (greater than 20% Gcase activation) | +++ (Gcase activation greater than 60%) |  |
| Cc1cc(-c2cccc(F)c2C#N)nc2c(C(=O)N[C@@H](C)C(F)(F)F)cnn12 [III-399] | *** (greater than 20% Gcase activation) | +++ (Gcase activation greater than 60%) |  |
| Cc1cc(-c2c(F)cccc2C#N)nc2c(C(=O)N[C@@H](C)C(F)(F)F)cnn12 [III-400] | ** (Gcase activation in the range of 10% up to 20%) | +++ (Gcase activation greater than 60%) |  |
| Cc1cc(-c2noc(C(C)C)n2)nc2c(C(=O)N[C@@H](C)C(F)(F)F)cnn12 [III-401] | *** (greater than 20% Gcase activation) | +++ (Gcase activation greater than 60%) |  |
| Cc1cc(-c2noc(C(C)C)n2)nc2c(C(=O)N[C@@H](C)C3CC3)cnn12 [III-402] | *** (greater than 20% Gcase activation) | +++ (Gcase activation greater than 60%) |  |
| CO[C@H]1CC[C@H]([C@@H](C)NC(=O)c2cnn3c(C)cc(C)nc23)CC1 [III-403] | * (less than 10% Gcase activation) | ++ (Gcase activation in the range of 30% up to 60%) |  |

| Structure (SMILES) | Percent Gcase Activation, 0.1 μM Test Compound ([2]; 0.1 μM test compound) | Percent Gcase Activation, 1 μM Test Compound ([2]; 1 μM test compound) | other results |
| --- | --- | --- | --- |
| CO[C@H]1CC[C@@H]([C@@H](C)NC(=O)c2cnn3c(C)cc(C)nc23)CC1 [III-404] | * (less than 10% Gcase activation) | +++ (Gcase activation greater than 60%) |  |
| COc1cccc(-c2cc(C)n3ncc(C(=O)NC(C)(C)C(F)(F)F)c3n2)c1 [III-405] | *** (greater than 20% Gcase activation) | +++ (Gcase activation greater than 60%) |  |
| Cc1cc(-c2cccc(Cl)c2)nc2c(C(=O)NC(C)(C)C(F)(F)F)cnn12 [III-406] | *** (greater than 20% Gcase activation) | +++ (Gcase activation greater than 60%) |  |
| CCc1cc(-c2ccccn2)nc2c(C(=O)NC(C)(C)C(F)(F)F)cnn12 [III-407] | * (less than 10% Gcase activation) | + (less than 30% Gcase activation) |  |
| Cc1cc(-c2ccccn2)nc2c(C(=O)NC(C)(C)C(F)(F)F)cnn12 [III-408] | ** (Gcase activation in the range of 10% up to 20%) | +++ (Gcase activation greater than 60%) |  |
| COc1ccc(F)c(-c2cc(C)n3ncc(C(=O)NC(C)C(F)(F)F)c3n2)c1 (stereo not shown) [III-409] | *** (greater than 20% Gcase activation) | +++ (Gcase activation greater than 60%) |  |
| COc1cc(F)cc(-c2cc(C)n3ncc(C(=O)NC(C)C(F)(F)F)c3n2)c1 (stereo not shown) [III-410] | *** (greater than 20% Gcase activation) | +++ (Gcase activation greater than 60%) |  |
| Cc1cc(-c2ccns2)nc2c(C(=O)NC(C3CC3)C(F)(F)F)cnn12 (stereo not shown) [III-411] | *** (greater than 20% Gcase activation) | +++ (Gcase activation greater than 60%) |  |
| C#CC(C)(C)NC(=O)c1cnn2c(C)cc(-c3ccns3)nc12 [III-412] | * (less than 10% Gcase activation) | +++ (Gcase activation greater than 60%) |  |
| Cc1cc(-c2cccc(C(=O)N(C)C)c2)nc2c(C(=O)NC(C3CC3)C(F)(F)F)cnn12 (stereo not shown) [III-413] | * (less than 10% Gcase activation) | +++ (Gcase activation greater than 60%) |  |
| CNC(=O)c1cccc(-c2cc(C)n3ncc(C(=O)NC(C4CC4)C(F)(F)F)c3n2)c1 (stereo not shown) [III-414] | * (less than 10% Gcase activation) | +++ (Gcase activation greater than 60%) |  |
| Cc1cc(-c2cccc(-n3cccn3)c2)nc2c(C(=O)NC(C3CC3)C(F)(F)F)cnn12 (stereo not shown) [III-415] | *** (greater than 20% Gcase activation) | ++ (Gcase activation in the range of 30% up to 60%) |  |
| Cc1cc(-c2cccc(-c3ncco3)c2)nc2c(C(=O)NC(C3CC3)C(F)(F)F)cnn12 (stereo not shown) [III-416] | *** (greater than 20% Gcase activation) | +++ (Gcase activation greater than 60%) |  |
| Cc1cc(-c2cccc(-c3ncccn3)c2)nc2c(C(=O)NC(C3CC3)C(F)(F)F)cnn12 (stereo not shown) [III-417] | *** (greater than 20% Gcase activation) | +++ (Gcase activation greater than 60%) |  |
| C#Cc1ccc(NC(=O)c2cnn3c(C)cc(C)nc23)cc1 [IV-1] |  |  | Compound Solubility in Water ([1]; Table 4): <1.5 µg/mL; Percent Gease Activation, 0.1 μM Test Compound ([2]; 0.1 μM test compound): ** (Gcase activation in the range of 10% up to 20%); Percent Gease Activation, 1 μM Test Compound ([2]; 1 μM test compound): ++ (Gcase activation in the range of 30% up to 60%) |
| Cc1cc(C)n2ncc(C(=O)Nc3ccc(C#CCN(C)C)cc3)c2n1 [IV-2] |  |  | Percent Gease Activation, 0.1 μM Test Compound ([2]; 0.1 μM test compound): * (less than 10% Gcase activation); Percent Gease Activation, 1 μM Test Compound ([2]; 1 μM test compound): + (less than 30% Gcase activation) |
| Cc1cc(C)n2ncc(C(=O)Nc3ccc4c(c3)OCO4)c2n1 [IV-4] |  |  | Percent Gease Activation, 0.1 μM Test Compound ([2]; 0.1 μM test compound): * (less than 10% Gcase activation); Percent Gease Activation, 1 μM Test Compound ([2]; 1 μM test compound): ++ (Gcase activation in the range of 30% up to 60%) |
| Cc1cc(C)n2ncc(C(=O)Nc3ccc4c(c3)CCC4)c2n1 [IV-5] |  |  | Percent Gease Activation, 0.1 μM Test Compound ([2]; 0.1 μM test compound): ** (Gcase activation in the range of 10% up to 20%); Percent Gease Activation, 1 μM Test Compound ([2]; 1 μM test compound): +++ (Gcase activation greater than 60%) |
